From PubChem BioAssay (NCI)
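Protocol summary: plate cells (96-well), add compound at 5 concentrations, incubate 48 h, interpolate endpoints linearly. TGI denotes the concentration required for complete inhibition of growth.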

Tests used:
Experiment in all cases: NCI anticancer screen, dose series, 48 h
OVCAR-3 ovarian = test system: OVCAR-3 ovarian
NCI-H460 lung = test system: NCI-H460 lung
RXF 393 renal = test system: RXF 393 renal
SF-295 CNS = test system: SF-295 CNS
BT-549 breast = test system: BT-549 breast
ACHN renal = test system: ACHN renal
MOLT-4 leukemia = test system: MOLT-4 leukemia
CCRF-CEM leukemia = test system: CCRF-CEM leukemia
HCC-2998 colon = test system: HCC-2998 colon
A549 NSCLC = test system: A549 NSCLC
NCI/ADR-RES ovarian = test system: NCI/ADR-RES ovarian
RPMI-8226 leukemia = test system: RPMI-8226 leukemia
T-47D breast = test system: T-47D breast
MCF7 breast = test system: MCF7 breast
SK-MEL-5 melanoma = test system: SK-MEL-5 melanoma
786-0 renal = test system: 786-0 renal
OVCAR-8 ovarian = test system: OVCAR-8 ovarian
KM12 colon = test system: KM12 colon
HCT-116 colon = test system: HCT-116 colon
HOP-62 NSCLC = test system: HOP-62 NSCLC
SNB-75 CNS = test system: SNB-75 CNS
MDA-MB-231 breast = test system: MDA-MB-231 breast
SNB-19 CNS = test system: SNB-19 CNS
HOP-92 NSCLC = test system: HOP-92 NSCLC
K-562 leukemia = test system: K-562 leukemia
SF-268 CNS = test system: SF-268 CNS
HL-60(TB) leukemia = test system: HL-60(TB) leukemia
SW-620 colon = test system: SW-620 colon
SR leukemia = test system: SR leukemia
MALME-3M melanoma = test system: MALME-3M melanoma
NCI-H23 lung = test system: NCI-H23 lung
PC-3 prostate = test system: PC-3 prostate
SK-MEL-2 melanoma = test system: SK-MEL-2 melanoma
SK-MEL-28 melanoma = test system: SK-MEL-28 melanoma
IGROV1 ovarian = test system: IGROV1 ovarian
UACC-62 melanoma = test system: UACC-62 melanoma
HT29 colon = test system: HT29 colon
SN12C renal = test system: SN12C renal
OVCAR-4 ovarian = test system: OVCAR-4 ovarian
LOX IMVI melanoma = test system: LOX IMVI melanoma
OVCAR-5 ovarian = test system: OVCAR-5 ovarian
DU-145 prostate = test system: DU-145 prostate
TK-10 renal = test system: TK-10 renal
NCI-H226 lung = test system: NCI-H226 lung
EKVX NSCLC = test system: EKVX NSCLC
SK-OV-3 ovarian = test system: SK-OV-3 ovarian
HS 578T breast = test system: HS 578T breast
M14 melanoma = test system: M14 melanoma
MDA-MB-435 = test system: MDA-MB-435
UO-31 renal = test system: UO-31 renal
UACC-257 melanoma = test system: UACC-257 melanoma
NCI-H522 lung = test system: NCI-H522 lung
SF-539 CNS = test system: SF-539 CNS
U251 CNS = test system: U251 CNS
COLO 205 colon = test system: COLO 205 colon
CAKI-1 renal = test system: CAKI-1 renal
HCT-15 colon = test system: HCT-15 colon
A498 renal = test system: A498 renal

In the case of `COC(=O)N/N=C(\C)C(CN1CCOCC1)C(c1ccccc1)c1cc2ccccc2oc1=O` (stereo not drawn), the TGI (OVCAR-3 ovarian) is reported as > 100 µM, the TGI (NCI-H460 lung) is reported as > 100 µM and the TGI (RXF 393 renal) is reported as > 100 µM. The TGI (SF-295 CNS) was > 100 µM, the TGI (BT-549 breast) was > 100 µM and the TGI (ACHN renal) was > 100 µM. The TGI (MOLT-4 leukemia) was > 100 µM, the TGI (CCRF-CEM leukemia) was > 100 µM and the TGI (HCC-2998 colon) was > 100 µM. For the same compound, the TGI (A549 NSCLC) was > 100 µM, the TGI (NCI/ADR-RES ovarian) was > 100 µM and the TGI (RPMI-8226 leukemia) was 53.4 µM. The TGI (T-47D breast) was > 100 µM, the TGI (MCF7 breast) was > 100 µM and the TGI (SK-MEL-5 melanoma) was > 100 µM. For the same compound, the TGI (786-0 renal) was > 100 µM, the TGI (OVCAR-8 ovarian) was > 100 µM and the TGI (KM12 colon) was > 100 µM. The TGI (HCT-116 colon) was > 100 µM, the TGI (HOP-62 NSCLC) was > 100 µM and the TGI (SNB-75 CNS) was > 100 µM. The TGI (MDA-MB-231 breast) was > 100 µM, the TGI (SNB-19 CNS) was > 100 µM and the TGI (HOP-92 NSCLC) was > 100 µM. For the same compound, the TGI (K-562 leukemia) was > 100 µM, the TGI (SF-268 CNS) was > 100 µM and the TGI (HL-60(TB) leukemia) was 85.3 µM. The TGI (SW-620 colon) was > 100 µM, the TGI (SR leukemia) was 56.5 µM and the TGI (MALME-3M melanoma) was > 100 µM. For the same compound, the TGI (NCI-H23 lung) was > 100 µM, the TGI (PC-3 prostate) was > 100 µM and the TGI (SK-MEL-2 melanoma) was > 100 µM. For the same compound, the TGI (SK-MEL-28 melanoma) was > 100 µM, the TGI (IGROV1 ovarian) was > 100 µM and the TGI (UACC-62 melanoma) was > 100 µM. For the same compound, the TGI (HT29 colon) was > 100 µM, the TGI (SN12C renal) was > 100 µM and the TGI (OVCAR-4 ovarian) was > 100 µM. The TGI (LOX IMVI melanoma) was > 100 µM, the TGI (OVCAR-5 ovarian) was > 100 µM and the TGI (DU-145 prostate) was > 100 µM. The TGI (TK-10 renal) was > 100 µM, the TGI (NCI-H226 lung) was > 100 µM and the TGI (EKVX NSCLC) was > 100 µM. For the same compound, the TGI (SK-OV-3 ovarian) was > 100 µM, the TGI (HS 578T breast) was > 100 µM and the TGI (M14 melanoma) was > 100 µM. For the same compound, the TGI (MDA-MB-435) was > 100 µM, the TGI (UO-31 renal) was > 100 µM and the TGI (UACC-257 melanoma) was > 100 µM. For the same compound, the TGI (NCI-H522 lung) was > 100 µM, the TGI (SF-539 CNS) was > 100 µM and the TGI (U251 CNS) was > 100 µM. The TGI (COLO 205 colon) was > 100 µM, the TGI (CAKI-1 renal) was > 100 µM and the TGI (HCT-15 colon) was > 100 µM. For the same compound, the TGI (A498 renal) was > 100 µM.
